What was measured:
Experiment in all cases: in vitro activity-based HDAC assay
Assay type in all cases: biochemical
[1] = biological target: HDAC8 (Homo sapiens, UniProt Q9BY41); conditions: human HDAC isoform panel, Table 1
[2] = biological target: HDAC11 (Homo sapiens, UniProt Q96DB2); conditions: human HDAC isoform panel, Table 1
[3] = biological target: T1, HDAC10 (Homo sapiens, UniProt Q969S8); conditions: human HDAC isoform panel, Table 1
T1 sequence (Q969S8 1-669): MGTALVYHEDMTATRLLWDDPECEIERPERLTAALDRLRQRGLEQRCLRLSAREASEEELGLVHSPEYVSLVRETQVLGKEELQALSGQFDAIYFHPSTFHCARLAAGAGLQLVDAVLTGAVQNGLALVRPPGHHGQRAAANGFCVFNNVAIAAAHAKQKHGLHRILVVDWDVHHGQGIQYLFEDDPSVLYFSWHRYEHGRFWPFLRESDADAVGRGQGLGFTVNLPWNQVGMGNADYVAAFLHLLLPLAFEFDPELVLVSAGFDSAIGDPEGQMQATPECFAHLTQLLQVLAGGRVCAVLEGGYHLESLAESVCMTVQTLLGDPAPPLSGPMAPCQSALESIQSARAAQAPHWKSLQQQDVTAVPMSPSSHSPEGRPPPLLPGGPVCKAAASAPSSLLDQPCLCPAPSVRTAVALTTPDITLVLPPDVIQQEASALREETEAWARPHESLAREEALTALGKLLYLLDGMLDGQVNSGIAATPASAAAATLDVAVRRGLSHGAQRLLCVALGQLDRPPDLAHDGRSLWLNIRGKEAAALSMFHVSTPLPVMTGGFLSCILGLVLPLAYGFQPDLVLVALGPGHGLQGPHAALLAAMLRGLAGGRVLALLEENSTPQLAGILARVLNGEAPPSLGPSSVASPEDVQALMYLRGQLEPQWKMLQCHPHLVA

[4] = biological target: HDAC4 (Homo sapiens, UniProt P56524); conditions: human HDAC isoform panel, Table 1
[5] = biological target: HDAC2 (Homo sapiens, UniProt Q92769); conditions: human HDAC isoform panel, Table 1
[6] = biological target: T2, HDAC6 (Homo sapiens, UniProt Q9UBN7); conditions: human HDAC isoform panel, Table 1; read-out: IC50 HDAC6
T2 sequence (Q9UBN7 1-1215): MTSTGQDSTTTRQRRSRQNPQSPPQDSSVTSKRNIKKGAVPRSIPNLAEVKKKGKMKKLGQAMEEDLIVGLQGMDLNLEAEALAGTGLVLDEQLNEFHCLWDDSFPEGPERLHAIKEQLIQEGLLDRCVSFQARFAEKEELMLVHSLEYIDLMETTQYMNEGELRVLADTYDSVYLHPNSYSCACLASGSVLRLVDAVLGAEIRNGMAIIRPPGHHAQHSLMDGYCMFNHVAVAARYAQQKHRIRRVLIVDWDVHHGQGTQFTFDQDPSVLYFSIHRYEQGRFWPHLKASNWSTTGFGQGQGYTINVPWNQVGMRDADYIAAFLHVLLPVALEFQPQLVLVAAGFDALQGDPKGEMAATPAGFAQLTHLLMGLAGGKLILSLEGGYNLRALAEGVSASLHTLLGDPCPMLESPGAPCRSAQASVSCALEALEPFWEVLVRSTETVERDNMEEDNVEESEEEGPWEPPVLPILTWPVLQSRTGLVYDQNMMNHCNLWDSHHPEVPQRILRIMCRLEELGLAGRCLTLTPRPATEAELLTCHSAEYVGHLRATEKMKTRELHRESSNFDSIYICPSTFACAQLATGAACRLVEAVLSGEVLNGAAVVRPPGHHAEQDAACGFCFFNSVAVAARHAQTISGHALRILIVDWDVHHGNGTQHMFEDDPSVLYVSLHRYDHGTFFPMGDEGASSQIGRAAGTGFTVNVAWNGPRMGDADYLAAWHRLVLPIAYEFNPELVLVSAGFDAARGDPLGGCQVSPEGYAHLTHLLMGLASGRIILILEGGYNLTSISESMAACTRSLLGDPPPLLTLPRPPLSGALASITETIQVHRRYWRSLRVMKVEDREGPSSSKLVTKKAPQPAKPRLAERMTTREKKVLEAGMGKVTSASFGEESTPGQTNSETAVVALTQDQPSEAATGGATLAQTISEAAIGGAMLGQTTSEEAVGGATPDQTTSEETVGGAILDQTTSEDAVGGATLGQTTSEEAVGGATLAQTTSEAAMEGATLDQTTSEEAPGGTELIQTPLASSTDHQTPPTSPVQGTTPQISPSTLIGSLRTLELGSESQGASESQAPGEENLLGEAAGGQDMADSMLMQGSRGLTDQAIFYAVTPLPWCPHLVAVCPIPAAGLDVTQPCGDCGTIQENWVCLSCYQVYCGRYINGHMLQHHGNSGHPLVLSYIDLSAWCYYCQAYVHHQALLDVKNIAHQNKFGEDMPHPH

[7] = biological target: HDAC9 (Homo sapiens, UniProt Q9UKV0); conditions: human HDAC isoform panel, Table 1
Sequence of HDAC9 (Q9UKV0 whole entry, canonical isoform): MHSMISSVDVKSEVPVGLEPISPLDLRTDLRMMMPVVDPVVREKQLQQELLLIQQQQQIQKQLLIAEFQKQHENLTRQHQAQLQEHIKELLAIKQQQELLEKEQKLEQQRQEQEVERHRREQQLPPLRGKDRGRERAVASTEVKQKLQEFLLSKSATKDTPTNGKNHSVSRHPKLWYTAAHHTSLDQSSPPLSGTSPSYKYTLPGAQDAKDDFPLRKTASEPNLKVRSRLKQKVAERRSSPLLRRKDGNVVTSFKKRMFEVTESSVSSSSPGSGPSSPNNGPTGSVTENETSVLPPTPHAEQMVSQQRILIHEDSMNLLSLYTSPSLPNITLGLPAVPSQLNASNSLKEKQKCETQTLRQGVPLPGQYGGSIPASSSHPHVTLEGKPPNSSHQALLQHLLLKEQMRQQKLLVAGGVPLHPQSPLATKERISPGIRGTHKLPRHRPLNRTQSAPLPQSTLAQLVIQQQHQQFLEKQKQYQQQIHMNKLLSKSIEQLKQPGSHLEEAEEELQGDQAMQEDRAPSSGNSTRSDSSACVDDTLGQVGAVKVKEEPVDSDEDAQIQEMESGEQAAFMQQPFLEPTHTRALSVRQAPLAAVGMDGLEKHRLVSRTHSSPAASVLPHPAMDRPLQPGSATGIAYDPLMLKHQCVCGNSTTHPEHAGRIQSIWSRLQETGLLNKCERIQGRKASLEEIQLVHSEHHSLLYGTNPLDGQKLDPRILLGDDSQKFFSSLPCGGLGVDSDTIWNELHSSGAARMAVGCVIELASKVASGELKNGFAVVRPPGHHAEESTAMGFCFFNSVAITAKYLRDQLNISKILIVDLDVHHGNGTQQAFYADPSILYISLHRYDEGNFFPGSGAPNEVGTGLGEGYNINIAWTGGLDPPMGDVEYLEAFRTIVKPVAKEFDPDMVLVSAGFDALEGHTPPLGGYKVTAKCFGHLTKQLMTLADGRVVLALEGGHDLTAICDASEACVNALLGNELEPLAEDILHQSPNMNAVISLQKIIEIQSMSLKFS

Sequence of HDAC2 (Q92769 whole entry, canonical isoform): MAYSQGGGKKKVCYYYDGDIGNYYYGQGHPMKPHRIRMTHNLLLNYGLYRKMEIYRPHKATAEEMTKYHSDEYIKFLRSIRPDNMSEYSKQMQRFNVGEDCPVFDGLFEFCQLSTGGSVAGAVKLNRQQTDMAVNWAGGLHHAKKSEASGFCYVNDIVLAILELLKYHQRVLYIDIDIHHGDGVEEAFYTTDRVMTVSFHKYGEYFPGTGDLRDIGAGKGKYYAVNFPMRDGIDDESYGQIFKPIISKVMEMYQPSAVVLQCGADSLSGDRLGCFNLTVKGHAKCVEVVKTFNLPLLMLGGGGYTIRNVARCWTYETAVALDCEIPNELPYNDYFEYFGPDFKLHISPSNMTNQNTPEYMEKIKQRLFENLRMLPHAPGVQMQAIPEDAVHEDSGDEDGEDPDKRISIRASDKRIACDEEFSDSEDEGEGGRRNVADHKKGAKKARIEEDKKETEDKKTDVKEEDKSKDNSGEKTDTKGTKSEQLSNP
Sequence of HDAC11 (Q96DB2 whole entry, canonical isoform): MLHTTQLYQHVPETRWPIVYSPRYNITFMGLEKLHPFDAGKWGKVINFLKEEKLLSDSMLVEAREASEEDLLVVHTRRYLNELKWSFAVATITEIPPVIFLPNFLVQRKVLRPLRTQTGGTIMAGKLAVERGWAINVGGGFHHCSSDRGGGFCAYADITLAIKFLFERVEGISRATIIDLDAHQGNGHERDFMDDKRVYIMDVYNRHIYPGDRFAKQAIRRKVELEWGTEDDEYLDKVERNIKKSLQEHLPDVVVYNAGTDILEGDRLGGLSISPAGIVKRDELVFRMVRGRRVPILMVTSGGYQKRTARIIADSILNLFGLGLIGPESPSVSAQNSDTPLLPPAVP
Sequence of HDAC8 (Q9BY41 whole entry, canonical isoform): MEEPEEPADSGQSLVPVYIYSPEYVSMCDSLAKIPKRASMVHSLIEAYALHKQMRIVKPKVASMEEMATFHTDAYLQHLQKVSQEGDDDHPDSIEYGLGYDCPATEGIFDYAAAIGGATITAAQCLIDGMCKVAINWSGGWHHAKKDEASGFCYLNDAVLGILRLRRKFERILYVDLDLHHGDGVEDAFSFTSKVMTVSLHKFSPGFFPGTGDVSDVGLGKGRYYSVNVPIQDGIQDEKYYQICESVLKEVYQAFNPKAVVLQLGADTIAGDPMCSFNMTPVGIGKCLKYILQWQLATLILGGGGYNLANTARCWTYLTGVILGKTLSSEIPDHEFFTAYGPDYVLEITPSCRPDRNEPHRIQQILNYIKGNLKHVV
Sequence of HDAC4 (P56524 whole entry, canonical isoform): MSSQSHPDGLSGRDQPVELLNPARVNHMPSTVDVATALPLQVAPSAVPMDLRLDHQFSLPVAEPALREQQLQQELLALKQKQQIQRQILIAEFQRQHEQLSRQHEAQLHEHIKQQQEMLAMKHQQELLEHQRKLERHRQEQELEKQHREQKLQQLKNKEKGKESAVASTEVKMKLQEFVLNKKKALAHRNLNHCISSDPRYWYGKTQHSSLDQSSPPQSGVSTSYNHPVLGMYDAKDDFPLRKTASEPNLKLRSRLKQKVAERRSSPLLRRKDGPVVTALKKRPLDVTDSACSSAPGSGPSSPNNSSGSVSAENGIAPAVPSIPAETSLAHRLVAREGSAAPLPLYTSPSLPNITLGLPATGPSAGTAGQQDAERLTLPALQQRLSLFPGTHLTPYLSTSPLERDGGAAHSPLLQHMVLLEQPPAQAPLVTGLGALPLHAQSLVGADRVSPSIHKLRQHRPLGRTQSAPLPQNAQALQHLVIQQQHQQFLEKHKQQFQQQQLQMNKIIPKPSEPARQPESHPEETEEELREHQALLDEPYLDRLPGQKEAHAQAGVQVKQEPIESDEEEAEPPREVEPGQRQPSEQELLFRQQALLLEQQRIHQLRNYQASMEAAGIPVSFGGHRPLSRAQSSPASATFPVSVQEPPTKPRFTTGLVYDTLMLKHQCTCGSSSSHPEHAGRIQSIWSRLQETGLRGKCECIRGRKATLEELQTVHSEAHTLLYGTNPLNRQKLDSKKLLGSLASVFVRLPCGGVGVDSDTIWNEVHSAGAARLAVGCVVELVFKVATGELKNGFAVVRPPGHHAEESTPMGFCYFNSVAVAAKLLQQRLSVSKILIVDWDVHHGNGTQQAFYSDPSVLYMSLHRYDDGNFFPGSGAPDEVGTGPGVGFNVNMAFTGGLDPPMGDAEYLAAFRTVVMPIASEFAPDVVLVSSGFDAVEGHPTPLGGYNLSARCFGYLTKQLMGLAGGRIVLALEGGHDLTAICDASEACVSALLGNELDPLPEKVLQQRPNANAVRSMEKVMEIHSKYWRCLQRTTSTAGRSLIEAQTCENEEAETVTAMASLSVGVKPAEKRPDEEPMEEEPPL

SMILES	IC50 [1]	IC50 [2]	IC50 [3]	IC50 [4]	IC50 [5]	IC50 [6]	IC50 [7]
O=C(NO)c1ccc(CN(Cc2cccnc2)S(=O)(=O)c2cc(F)c(F)c(F)c2F)cc1 [Compound I-18, N-hydroxy-4-((2,3,4,5-tetrafluoro-N-(pyridin-3-ylmethyl)phenylsulfonamido)methyl)benzamide]	0.316 µM	> 1 µM	0.551 µM	> 1 µM	> 1 µM	0.002 µM	> 1 µM
O=C(NO)c1ccc(CN(C2CC2)S(=O)(=O)c2cc(F)c(F)c(F)c2F)cc1 [Compound I-13, 4-((N-cyclopropyl-2,3,4,5-tetrafluorophenylsulfonamido)methyl)-N-hydroxybenzamide]	0.334 µM	> 1 µM	> 1 µM	> 1 µM	> 1 µM	0.009 µM	> 1 µM

Reference: patent US20220169598A1, “HALOGENATED PHENYLSULFONAMIDE HYDROXAMIC ACID COMPOUNDS, COMPOSITIONS AND USES THEREOF AS SELECTIVE HDAC6 INHIBITORS” (2681603 ONTARIO INC., priority 2019, published 2022)
